Assay results from patent US20030191144A1, “Compounds, compositions and methods for modulating beta-amyloid production” (Active Pass Pharmaceuticals, Inc., priority 2001, published 2003).

Tested on: Aβ42 production and/or release from SM-4 cells
Test: Aβ42 ELISA of culture media from SM-4 cells
Assay type: cell-based
Settings: 16 hrs
Method: Cell Lines and Pharmacological Treatments. 293 EBNA cells (InVitrogen, Carlsbad, Calif.) stably transfected with Swedish mutant β-Amyloid Precursor Protein -695 (SM4 cells) were routinely maintained in DMEM supplemented with sodium pyruvate (1 mM) and 10% fetal bovine serum. Cells were seeded into poly-D-Lysine (SIGMA) coated 6-well plates at a density of 5-7×10^5 cells per well. Subsequently, the cells were rinsed in 1 ml of PBS and treated with 10-500 μM of pirinixic acid in serum-free/phenol red-free DMEM for 16 hours.
(§1) Aβ Detection and Standardization. After the pharmacological treatment, the exposure media was collected and supplemented with 10% sample treatment buffer (40 mM sodium phosphate (pH 7.4), 40 mM triethanolamine, 0.1% Triton X-100, 200 mM NaCl, 2 mM EGTA, 0.1% Sodium azide), and assayed for either Aβ40 or Aβ42 by a calorimetric ELISA as per the manufacturer's protocol (Biosource International Inc, California). The cells were lysed in 0.1% Triton X-100 in PBS supplemented with 5 μM propridium iodide (Molecular Probes, Eugene, Oreg.) and incubated at 37° C. for 30 minutes prior to measuring fluorescence. Aβ40 and Aβ42 were standardized against propridium iodide fluorescence as a measure of total cell number. […]
as §1, with “After” for “Aβ Detection and Standardization. After”
After the pharmacological treatment, the exposure media was collected and supplemented with 10% sample treatment buffer (40 mM sodium phosphate (pH 7.4), 40 mM triethanolamine, 0.1% Triton X-100, 200 mM NaCl, 2 mM EGTA, 0.1% Sodium azide), and assayed for either Aβ40 or Aβ42 by a colorimetric ELISA as per the manufacturer's protocol (Biosource International Inc, California). The cells were lysed in 0.1% Triton X-100 in PBS supplemented with 5 μM propridium iodide (Molecular Probes, Eugene, Oreg.) and incubated at 37° C. for 30 minutes prior to measuring fluorescence. Aβ40 and Aβ42 were standardized against propridium iodide fluorescence as a measure of total cell number.

SMILES: Cc1cccc(Nc2cc(Cl)nc(SCC(=O)O)n2)c1C [pirinixic acid]
- decrease in Aβ42 (50 μM, p<0.001): 15%
- decrease in Aβ42 (500 μM): 60%
